Data: patent US12281123B2, “Benzoxazinone compounds as KLK5/7 dual inhibitors” (MOLECULAR SKIN THERAPEUTICS, INC., priority 2019, dated 2025)
“Also recorded” adds a separate entry of the source. Marks after values point to notes of the source that are not given here.

Assays:
[1] = system: KLK proteases in human skin extract; assay: Inhibition of protease activity in human skin extract; assay type: biochemical
Method: Materials: The peptide substrates PS-01 (YRSR-pNA Tyr-Arg-Ser-Arg-pNA) (SEQ ID NO. 1) and PS-02 (Lys-His-Leu-Tyr-pNA) (SEQ ID NO. 2) were synthesized by Zamboni Chemical Solutions (Montreal, Canada). Human epidermis samples were obtained from Biopredic (Saint-Grégoire, France). The BCA protein assay kit was bought from VWR.
Preparation of skin extract: The epidermis was frozen and lyophilized. A sample of 15 mg lyophilized epidermis was immersed in 1 mL high salt buffer (100 mM Tris, 5 mM EDTA, 2M KCl, pH 8), frozen twice in dry ice and thawed. After incubation overnight at 4° C. and addition of six 2.4 mm metal beads, the sample was homogenized in a Bertin Precellys Homogenizer (Atkinson, NH) three times at […] for 20 seconds each and cooled in between for 30 seconds. After centrifugation at maximal speed in a desktop minifuge, the protein concentration of the supernatant was determined by BCA assay (˜0.5 mg/mL).
Inhibition of protease activity in skin extract: Stock solutions of 200, 66, 22 and 0 μM of the tested compound in DMSO were prepared. Substrate stocks of 1100 μM PS-01 and PS-02 were prepared by dissolving in water. The wells of a 384 well plate was filled with 50 μL 2× assay buffer (see above) and then 45 μL substrate stock and 5 μL of the test compound were added. The reaction was started by addition of 10 μL skin extract for the substrate PS-02 and 5 μL for the substrate PS-01. The substrate hydrolysis was monitored in multi-well plate reader at 405 nm.
Chromogenic substrate cleavage progressions of Compounds 1.001, 1.002, and 14 were tested according to human stratum corneum extract assay of Example 4 using KLK5 and KLK7 preferred chromogenic peptide substrates (PS-01 and PS-02). The proteolytic cleavage of KLK5 selective substrate in skin extract by Compounds 1.001, 1.002, and 14 are compared and shown in FIGS. 4A-4D. NSK refers to extract from skin freshly prepared; and OSK refers to extract from skin post freeze thaw.

[2] = system: proteases; assay: Chromogenic assay, protease panel (conclusion); assay type: biochemical; conditions: conclusion from Table 3, all proteases tested
Method: Assays: All assays were performed in 384 well polystyrene plates coated overnight with 0.1% Tween 20 at 4° C. The plates were then washed twice with 100 μL water and dried. For the determination of IC50 values, the inhibitors were diluted in serial dilutions of 1:3 intervals into pure DMSO at 50 fold of the intended final concentrations in the assays. Usually eight inhibitor dilutions and one DMSO control were prepared. The substrates were diluted into water at 2.2-fold the final concentration in the assay mixture. The wells of the plate were filled with 50 μL of the enzyme diluted in 2× assay buffer (100 mM Tris, 200 mM NaCl, 0.2% PEG, 0.01% Tween, 2 mM EDTA, pH 8.0) at twofold the intended concentration. Then 5 μL DMSO, 2.2 μL inhibitor and 45 μL substrate were added to start the reaction. The assays were monitored at 37° C. in a multi well plate reader at a wavelength of 405 nm (Molecular Devices, San Jose, CA) for 1 h. The tool inhibitor, nafamostat, was used as a control for trypsin, thrombin, KLK-5 and KLK-14 at 10 μM maximal concentration and (2-(2-fluorophenyl)-5,6,7,8-tetrahydro-4H-benzo[4,5]thieno[2,3-d][1,3]oxazin-4-one for KLK-7 at 5 μM. […]

[3] = human skin extract, Conc 3.3 μM

Row | Structure (SMILES) | Inhibition of proteolytic activity of skin extract, in words ([1]; compared to compounds 14 and 1.002, FIGS. 4A-4D (NSK), KLK5 selective substrate) | Initial rate of proteolytic activity ([1]; human skin extract, Conc 1 μM) | Initial rate of substrate hydrolysis ([1]; human skin extract, Conc 1 μM) | Initial rate of proteolytic activity [1, 3] | Initial rate of substrate hydrolysis [1, 3] | Rate in Skin Assay ([1]; human skin extract, compound concentration not given) | Inhibition of proteases, conclusion in words [2]
1 | CS(=O)(=O)c1cc(CO)ccc1-c1nc2cc3c(cc2c(=O)o1)OCCO3 [Compound 1.001, 2-(4-(Hydroxymethyl)-2-(methylsulfonyl)phenyl)-7,8-dihydro-4H-[1,4]dioxino[2′,3′:4,5]benzo[1,2-d][1,3]oxazin-4-one] | more potent inhibition of proteolytic activity; also recorded: more potent inhibitor of the proteolytic activity of skin extract | 0.04* Absorbance405/min | 0.02* Absorbance405/min | 0.07* Absorbance405/min | 0.04* Absorbance405/min | 0.004* Absorbance405/min | 
2 | CS(=O)(=O)c1cc(CO)ccc1C(=O)Nc1cc2c(cc1C(=O)O)OCCO2 [Compound 408, reference compound] |  |  |  |  |  |  | unable to inhibit proteases
